Data as given in patent publication US10131652B2, “Pyrimidinyloxy benzene derivatives as herbicides” (E. I. DU PONT DE NEMOURS AND COMPANY, priority 2014, dated 2018).
Like-named read-outs stand apart in the source and are kept apart here.

Assays:
Experiment in all cases: Test B pre-/postemergence plant response
Format in all cases: in vivo
[1] = test system: barnyardgrass (Echinochloa crus-galli); settings: for Plant response rating, Barnyardgrass: 1000 g ai/ha; for pest or weed control at 125 g/ha: 125 g ai/ha
Text: (§1) Seeds of plant species selected from bamyardgrass (Echinochloa crus-galli), kochia (Kochia scoparia), ragweed (common ragweed, Ambrosia elatior), Italian ryegrass (Lolium multiflorum), large (Lg) crabgrass (Digitaria sanguinalis), giant foxtail (Setaria faberii), momingglory (Ipomoea spp.), pigweed (Amaranthus retroflexus), velvetleaf (Abutilon theophrasti), wheat (Triticum aestivum), and corn (Zea mays) were planted into a blend of loam soil and sand and treated preemergence with a directed soil spray using test chemicals formulated in a non-phytotoxic solvent mixture which included a surfactant. At the same time, plants selected from these crop and weed species and also blackgrass (Alopecurus myosuroides), and galium (catchweed bedstraw, Galium aparine) were planted in pots containing the same blend of loam soil and sand and treated with postemergence applications of test chemicals formulated in the same manner. Plants ranged in height from 2 to 10 cm and were in the one- to two-leaf stage for the postemergence treatment. Treated plants and untreated controls were maintained in a greenhouse for approximately 10 days, after which time all treated plants were compared to untreated controls and visually evaluated for injury. Plant response ratings, summarized in Table B, are based on a 0 to 100 scale where 0 is no effect and 100 is complete control. A dash (-) response means no test result.

corn (Zea mays) = settings: for Plant response rating, Corn: 1000 g ai/ha; for Corn plant response rating (crop injury, 0 = no effect, 100 = complete kill) at 125 g/ha: 125 g ai/ha
Text: as §1

[2] = test system: giant foxtail (Setaria faberii); settings: for Plant response rating, Foxtail, Giant: 1000 g ai/ha; for pest or weed control at 125 g/ha: 125 g ai/ha
Text: as §1

[3] = test system: large (Lg) crabgrass (Digitaria sanguinalis); settings: for Plant response rating, Crabgrass, Large: 1000 g ai/ha; for pest or weed control at 125 g/ha: 125 g ai/ha
Text: as §1

[4] = test system: morningglory (Ipomoea spp.); settings: for Plant response rating, Morningglory: 1000 g ai/ha; for pest or weed control at 125 g/ha: 125 g ai/ha
Text: as §1

[5] = test system: pigweed (Amaranthus retroflexus); settings: for Plant response rating, Pigweed: 1000 g ai/ha; for pest or weed control at 125 g/ha: 125 g ai/ha
Text: as §1

[6] = test system: velvetleaf (Abutilon theophrasti); settings: for Plant response rating, Velvetleaf: 1000 g ai/ha; for pest or weed control at 125 g/ha: 125 g ai/ha
Text: as §1

[7] = test system: wheat (Triticum aestivum); settings: for Plant response rating, Wheat: 1000 g ai/ha, 0 to 100 scale (0 no effect, 100 complete control); for plant injury at 125 g/ha: 125 g ai/ha
Text: as §1

[8] = Postemergence, 0 to 100 scale (0 no effect, 100 complete control)
[9] = Preemergence, 0 to 100 scale (0 no effect, 100 complete control)
[10] = Preemergence, 31 g ai/ha, 0 to 100 scale (0 no effect, 100 complete control)

For `Clc1cnc(Oc2ccccc2-c2cnco2)nc1` [Compound 7], the “Plant response rating, Barnyardgrass” value [1, 8] was 10, the “Plant response rating, Barnyardgrass” value [1, 9] was 10 and the “Plant response rating, Corn” value (corn (Zea mays); [8]) was 10. The “Plant response rating, Corn” value (corn (Zea mays); [9]) was 0, the “Plant response rating, Foxtail, Giant” value [2, 8] was 20 and the “Plant response rating, Foxtail, Giant” value [2, 9] was 20. The “Plant response rating, Crabgrass, Large” value [3, 8] was 20, the “Plant response rating, Crabgrass, Large” value [3, 9] was 40 and the “Plant response rating, Morningglory” value [4, 8] was 40. For the same compound, the “Plant response rating, Morningglory” value [4, 9] was 0, the “Plant response rating, Pigweed” value [5, 8] was 20 and the “Plant response rating, Pigweed” value [5, 9] was 40. For the same compound, the “Plant response rating, Velvetleaf” value [6, 8] was 10, the “Plant response rating, Velvetleaf” value [6, 9] was 10 and the “Plant response rating, Wheat” value ([7]; Postemergence) was 10. The “Plant response rating, Wheat” value ([7]; Preemergence) was 0.
`Clc1cnc(Oc2ccccc2-c2cscn2)nc1` [Compound 8] was tested, and the “Plant response rating, Barnyardgrass” value [1, 8] was 0, the “Plant response rating, Barnyardgrass” value [1, 9] was 30 and the “Plant response rating, Corn” value (corn (Zea mays); [8]) was 0. The “Plant response rating, Corn” value (corn (Zea mays); [9]) was 0, the “Plant response rating, Foxtail, Giant” value [2, 8] was 0 and the “Plant response rating, Foxtail, Giant” value [2, 9] was 60. For the same compound, the “Plant response rating, Crabgrass, Large” value [3, 8] was 10, the “Plant response rating, Crabgrass, Large” value [3, 9] was 80 and the “Plant response rating, Morningglory” value [4, 8] was 10. For the same compound, the “Plant response rating, Morningglory” value [4, 9] was 0, the “Plant response rating, Pigweed” value [5, 8] was 70 and the “Plant response rating, Pigweed” value [5, 9] was 100. For the same compound, the “Plant response rating, Velvetleaf” value [6, 8] was 30, the “Plant response rating, Velvetleaf” value [6, 9] was 30 and the “Plant response rating, Wheat” value ([7]; Postemergence) was 0. The “Plant response rating, Wheat” value ([7]; Preemergence) was 0.
With `Clc1cnc(Oc2ccccc2-c2cncs2)nc1` [Compound 9] the “Plant response rating, Barnyardgrass” value [1, 8] was 10, the “Plant response rating, Barnyardgrass” value [1, 9] was 20 and the “Plant response rating, Corn” value (corn (Zea mays); [8]) was 10. The “Plant response rating, Corn” value (corn (Zea mays); [9]) was 0, the “Plant response rating, Foxtail, Giant” value [2, 8] was 20 and the “Plant response rating, Foxtail, Giant” value [2, 9] was 60. For the same compound, the “Plant response rating, Crabgrass, Large” value [3, 8] was 50, the “Plant response rating, Crabgrass, Large” value [3, 9] was 70 and the “Plant response rating, Morningglory” value [4, 8] was 50. For the same compound, the “Plant response rating, Morningglory” value [4, 9] was 0, the “Plant response rating, Pigweed” value [5, 8] was 60 and the “Plant response rating, Pigweed” value [5, 9] was 90. The “Plant response rating, Velvetleaf” value [6, 8] was 40, the “Plant response rating, Velvetleaf” value [6, 9] was 10 and the “Plant response rating, Wheat” value ([7]; Postemergence) was 10. The “Plant response rating, Wheat” value ([7]; Preemergence) was 0.
Work on `FC(F)(F)c1cnc(Oc2ccccc2-c2cnc(Br)s2)nc1` [Compound 15, 2-[2-(2-bromo-5-thiazolyl)phenoxy]-5-(trifluoromethyl)pyrimidine] yielded a pest or weed control at 31 g/ha ([1]; Echinochloa crus-galli, post-emergence, 240 h, 31 g ai/ha, Postemergence, 0 to 100 scale, 0 no effect, 100 complete control, read-out: Plant response rating, Barnyardgrass) of 0%, a pest or weed control at 125 g/ha ([1]; Echinochloa crus-galli, post-emergence, 240 h, postemergence, 0 to 100 scale, 0 no effect, 100 complete control, read-out: Plant response rating, Barnyardgrass) of 0% and a pest or weed control at 125 g/ha ([1]; Echinochloa crus-galli, pre-emergence, 240 h, Preemergence, 0 to 100 scale where 0 is no effect and 100 is complete control, read-out: Plant response rating, Barnyardgrass) of 0%. The “Barnyardgrass plant response rating” value [1, 10] was 0, the “Corn plant response rating” value (corn (Zea mays); [10]) was 0 and the Corn plant response rating (crop injury, 0 = no effect, 100 = complete kill) at 31 g/ha (corn (Zea mays); Zea mays, post-emergence, 240 h, 31 g ai/ha, Postemergence, 0 to 100 scale, 0 no effect, 100 complete control) was 0%. The Corn plant response rating (crop injury, 0 = no effect, 100 = complete kill) at 125 g/ha (corn (Zea mays); Zea mays, post-emergence, 240 h, postemergence, 0 to 100 scale, 0 no effect, 100 complete control) was 0%, the Corn plant response rating (crop injury, 0 = no effect, 100 = complete kill) at 125 g/ha (corn (Zea mays); Zea mays, pre-emergence, 240 h, Preemergence, 0 to 100 scale where 0 is no effect and 100 is complete control) was 0% and the “Foxtail, Giant plant response rating” value [2, 10] was 0. It also gave a pest or weed control at 31 g/ha ([2]; Setaria faberi, post-emergence, 240 h, 31 g ai/ha, Postemergence, 0 to 100 scale, 0 no effect, 100 complete control, read-out: Plant response rating, Foxtail, Giant) of 0%, a pest or weed control at 125 g/ha ([2]; Setaria faberi, post-emergence, 240 h, postemergence, 0 to 100 scale, 0 no effect, 100 complete control, read-out: Plant response rating, Foxtail, Giant) of 0% and a pest or weed control at 125 g/ha ([2]; Setaria faberi, pre-emergence, 240 h, Preemergence, 0 to 100 scale where 0 is no effect and 100 is complete control, read-out: Plant response rating, Foxtail, Giant) of 0%. The pest or weed control at 31 g/ha ([3]; Digitaria sanguinalis, post-emergence, 240 h, 31 g ai/ha, Postemergence, 0 to 100 scale, 0 no effect, 100 complete control, read-out: Plant response rating, Crabgrass, Large) was 0%, the pest or weed control at 125 g/ha ([3]; Digitaria sanguinalis, post-emergence, 240 h, postemergence, 0 to 100 scale, 0 no effect, 100 complete control, read-out: Plant response rating, Crabgrass, Large) was 10% and the pest or weed control at 125 g/ha ([3]; Digitaria sanguinalis, pre-emergence, 240 h, Preemergence, 0 to 100 scale where 0 is no effect and 100 is complete control, read-out: Plant response rating, Crabgrass, Large) was 0%. For the same compound, the “Crabgrass, Large plant response rating” value [3, 10] was 0, the pest or weed control at 31 g/ha ([4]; Ipomoea, post-emergence, 240 h, 31 g ai/ha, Postemergence, 0 to 100 scale, 0 no effect, 100 complete control, read-out: Plant response rating, Morningglory) was 0% and the pest or weed control at 125 g/ha ([4]; Ipomoea, post-emergence, 240 h, postemergence, 0 to 100 scale, 0 no effect, 100 complete control, read-out: Plant response rating, Morningglory) was 10%. The pest or weed control at 125 g/ha ([4]; Ipomoea, pre-emergence, 240 h, Preemergence, 0 to 100 scale where 0 is no effect and 100 is complete control, read-out: Plant response rating, Morningglory) was 0%, the “Morningglory plant response rating” value [4, 10] was 0 and the pest or weed control at 31 g/ha ([5]; Amaranthus retroflexus, post-emergence, 240 h, 31 g ai/ha, Postemergence, 0 to 100 scale, 0 no effect, 100 complete control, read-out: Plant response rating, Pigweed) was 60%. The pest or weed control at 125 g/ha ([5]; Amaranthus retroflexus, post-emergence, 240 h, postemergence, 0 to 100 scale, 0 no effect, 100 complete control, read-out: Plant response rating, Pigweed) was 70%, the pest or weed control at 125 g/ha ([5]; Amaranthus retroflexus, pre-emergence, 240 h, Preemergence, 0 to 100 scale where 0 is no effect and 100 is complete control, read-out: Plant response rating, Pigweed) was 0% and the “Pigweed plant response rating” value [5, 10] was 0. The pest or weed control at 31 g/ha ([6]; Abutilon theophrasti, post-emergence, 240 h, 31 g ai/ha, Postemergence, 0 to 100 scale, 0 no effect, 100 complete control, read-out: Plant response rating, Velvetleaf) was 0%, the pest or weed control at 125 g/ha ([6]; Abutilon theophrasti, post-emergence, 240 h, postemergence, 0 to 100 scale, 0 no effect, 100 complete control, read-out: Plant response rating, Velvetleaf) was 0% and the pest or weed control at 125 g/ha ([6]; Abutilon theophrasti, pre-emergence, 240 h, Preemergence, 0 to 100 scale where 0 is no effect and 100 is complete control, read-out: Plant response rating, Velvetleaf) was 0%. For the same compound, the “Velvetleaf plant response rating” value [6, 10] was 0, the plant injury at 31 g/ha ([7]; Triticum aestivum, post-emergence, 240 h, 31 g ai/ha, Postemergence, 0 to 100 scale, 0 no effect, 100 complete control, read-out: Plant response rating, Wheat) was 0% and the plant injury at 125 g/ha ([7]; Triticum aestivum, post-emergence, 240 h, postemergence, 0 to 100 scale, 0 no effect, 100 complete control, read-out: Plant response rating, Wheat) was 0%. It also gave a plant injury at 125 g/ha ([7]; Triticum aestivum, pre-emergence, 240 h, Preemergence, 0 to 100 scale where 0 is no effect and 100 is complete control, read-out: Plant response rating, Wheat) of 0%.
